The values below come from US20090131309A1, “ICA512 COUPLES INSULIN SECRETION AND GENE EXPRESSION IN BETA-CELLS” (Technische Universität Dresden Medizinizche Fakultät Carl …, priority 2004, published 2009).

Type in all cases: cell-based, rat
The test system of one assay is ICA512-TMF. In words: Stimulus-induced cleavage of ICA512-TMF in INS-1 cells (western blot). The protocol:
Cell extracts and western blotting. Wild type and transfected INS-1 cells and rat pancreatic islets (350-450) were pre-incubated for 60 minutes in resting buffer containing 0 mM glucose and 5 mM KCl and then incubated for various times in fresh resting or stimulating buffer including 25 mM glucose and 55 mM KCl, as previously described (7). […] Next, the cells were washed with ice cold PBS, and extracted in lysis buffer (10 mM Tris-HCl at pH 8.0, 140 mM NaCl, 1% Triton X-100, 1 mM EDTA, 1 mM PMSF, and 1% protease inhibitor cocktail (Sigma, St. Louis, Mo.) at 4° C. Cytosolic and nuclear extracts were prepared using the NE-PER Nuclear and Cytoplasmic Extraction Reagents (Pierce, Rockford, Ill.) in accordance with the manufacturer's instructions. Protein concentration was measured using the Bio-Rad Protein Assay Reagent (Bio-Rad, Hercules, Calif.). Equivalent amount of protein was separated by 8-10% SDS-PAGE, except for nuclear extracts, in which case half of the protein were loaded compared to the corresponding cytosolic extracts. After protein transferring, nitrocellulose filters were incubated with the following antibodies: mouse monoclonal anti-ICA512 (6), anti-μ-calpain (Chemicon, Temecula, Calif.), anti-γ-tubulin and anti-HA (Sigma), anti-GFP (Clontech); rabbit polyclonals anti-Glut2 (Alpha Diagnostics International, St Antonio, Tex.), anti-CPE (Chemicon), anti-GFP (Molecular Probes, Eugene, Oreg.) and anti-HA (kind gift of Christoph Thiele). Chemiluminescence was developed using the Supersignal West Pico Substrate (Pierce) as substrate and detected with a LAS 3000 Bioimaging System (Fuji, Tokyo, Japan). Quantitation of protein signals was performed with the Image Gauge v3.45 software (Fuji).
A general note: A western blot detects proteins with antibodies after separation by electrophoresis.

Another assay deals with Insulin mRNA. The experiment in a line: Insulin mRNA levels by real-time PCR in INS-1 cells. As to conditions: 40 μM calpeptin; 2 hrs after 6 hrs stimulation and later; vs cells stimulated without calpeptin. The procedure:
Time-course stimulation of INS-1 cells. INS-1 ceils were incubated for 1 hr. in resting buffer (2.8 mM glucose and 5 mM KCl), then for 6 hrs. in resting or stimulating buffer, with or without 40 μM calpeptin, and then again in resting buffer for up to 24 hrs. Total RNA for real-time PCR was collected at time 0, 2 and 6 hrs. during stimulation and at 2, 6, 12 and 24 hrs. during the following resting period.
Real-time PCR. Total RNA from INS-1 cells was isolated with Trizol (Invitrogen, Karlsruhe, Germany) according to the manufacturer's protocol. 1 μg of total RNA was used for the reverse transcriptase reaction, with 2 μM specific antisense primers for […] and insulin, as described (31). mRNA expression was measured by quantitative real-time PCR using the Brilliant SYBR Green QPCR (Stratagene, La Jolla, Calif.) with an Mx4000 Multiplex Quantitative Real Time PCR System (Stratagene).
For orientation: Real-time PCR tracks product formation cycle by cycle.

The test system of the next assay is INS-1 cells. In words: Nuclear levels of ICA512-CCF-GFP in INS-1 cells (nuclear extracts, confocal imaging). As to conditions: ICA512-GFP INS-1 cells; 60 μM calpeptin. The procedure: Cell extracts and western blotting. Wild type and transfected INS-1 cells and rat pancreatic islets (350-450) were pre-incubated for 60 minutes in resting buffer containing 0 mM glucose and 5 mM KCl and then incubated for various times in fresh resting or stimulating buffer including 25 mM glucose and 55 mM KCl, as previously described (7). The protease inhibitors calpeptin, MG-132, L-685,458 (Calbiochem, La Jolla, Calif.) were added in the last 15 minutes of the pre-incubation, and then for the entire following period before cells were harvested. Next, the cells were washed with ice cold PBS, and extracted in lysis buffer (10 mM Tris-HCl at pH 8.0, 140 mM NaCl, 1% Triton X-100, 1 mM EDTA, 1 mM PMSF, and 1% protease inhibitor cocktail (Sigma, St. Louis, Mo.) at 4° C. Cytosolic and nuclear extracts were prepared using the NE-PER Nuclear and Cytoplasmic Extraction Reagents (Pierce, Rockford, Ill.) in accordance with the manufacturer's instructions. Protein concentration was measured using the Bio-Rad Protein Assay Reagent (Bio-Rad, Hercules, Calif.). Equivalent amount of protein was separated by 8-10% SDS-PAGE, except for nuclear extracts, in which case half of the protein were loaded compared to the corresponding cytosolic extracts. […] Quantitation of protein signals was performed with the Image Gauge v3.45 software (Fuji). […]

For `CCCC[C@@H](C=O)NC(=O)[C@H](CC(C)C)NC(=O)OCc1ccccc1` [calpeptin], in the assay on ICA512-TMF (INS-1 cells, stimulating buffer (25 mM glucose, 55 mM KCl) 105 min, western blot), the “Ca2+-dependent cleavage of ICA512-TMF cytoplasmic domain upon stimulation” value was “prevented in a dose-dependent manner”. The “stimulation induced proteolysis of ICA512-TMF-GFP” value in the assay on ICA512-TMF (cytosolic extracts of ICA512-GFP INS-1 cells, 60 μM calpeptin) is reported as “calpeptin-sensitive proteolysis of ICA512-TMF-GFP”. Moreover, in the assay on ICA512-TMF (stimulated INS-1 cells expressing dynamin 1 (K44A)-GFP), the “increased proteolysis of ICA512-TMF in dynamin 1 (K44A)-GFP cells” value was “inhibited by calpeptin in a dose-dependent fashion”. The “insulin mRNA reduction” value in the assay on Insulin mRNA is roughly 40%. Further, the “enrichment of 55 kD ICA512-CCF-GFP in nuclear fractions of stimulated cells” value with INS-1 cells was “in a calpeptin-sensitive manner”.
